Measured values taken from patent publication US9586949B2, “Aza-heteroaryl compounds as PI3K-gamma inhibitors” (Incyte Corporation, priority 2015, dated 2017).
Counter-ions that a name gives are not always drawn.

Key:
[1] = molecular target: PI3Kδ (p110δ/p85α) Recombinant Human Protein (Homo sapiens (Human), UniProt O00329); experiment: PI3Kδ Scintillation Proximity Assay; type: biochemical; conditions: 20 μM PIP2, 2 μM ATP, 3.4 nM PI3Kδ, 120 min; read-out: PI3K-delta SPA IC50
Excerpt: [γ-^33P]ATP (10 mCi/mL) and Wheat Germ Agglutinin (WGA) YSi SPA Scintillation Beads was purchased from Perkin-Elmer (Waltham, Mass.). Lipid kinase substrate, D-myo-Phosphatidylinositol 4,5-bisphosphate (PtdIns(4,5)P2)D (+)-sn-1,2-di-O-octanoylglyceryl, 3-O-phospho linked (PIP2), CAS 204858-53-7, was purchased from Echelon Biosciences (Salt Lake City, Utah). PI3Kδ (p110δ/p85α) Recombinant Human Protein was purchased from Eurofins (St Charles, Mo.). ATP, MgCl2, DTT, EDTA, MOPS and CHAPS were purchased from Sigma-Aldrich (St. Louis, Mo.).
(§1) The kinase reaction was conducted in polystyrene 384-well Greiner Bio-one white plate from Thermo Fisher Scientific in a final volume of 25 μL. Inhibitors were first diluted serially in DMSO and added to the plate wells before the addition of other reaction components. The final concentration of DMSO in the assay was 2%. The PI3Kδ assay was carried out at room temperature in 20 mM MOPS, pH 6.7, 10 mM MgCl2, 5 mM DTT and CHAPS 0.03%. Reactions were initiated by the addition of ATP, the final reaction mixture consisted of 20 μM PIP2, 2 μM ATP, 0.5 μCi [γ-^33P] ATP, 3.4 nM PI3Kδ. Reactions were incubated for 120 min and terminated by the addition of 40 μL SPA beads suspended in quench buffer: 163 mM potassium phosphate pH 7.8, 20% glycerol, 25 mM EDTA. The final concentration of SPA beads is 1.0 mg/mL. After the plate sealing, plates were shaken overnight at room temperature and centrifuged at 1500 rpm for 10 min, the radioactivity of the product was determined by scintillation counting on Topcount (Perkin-Elmer). IC50 determination was performed by fitting the curve of percent of the solvent control activity versus the log of the inhibitor concentration using the GraphPad Prism 6.0 software.

[2] = molecular target: PI3Kγ (p110γ) Recombinant Human Protein (Homo sapiens (Human), UniProt P48736); experiment: PI3K-γ Scintillation Proximity Assay; type: biochemical; conditions: 20 μM PIP2, 2 μM ATP, 13 nM PI3Kγ, 120 min; read-out: PI3K-gamma SPA IC50
Sequence of PI3Kγ (p110γ) Recombinant Human Protein (P48736 whole entry): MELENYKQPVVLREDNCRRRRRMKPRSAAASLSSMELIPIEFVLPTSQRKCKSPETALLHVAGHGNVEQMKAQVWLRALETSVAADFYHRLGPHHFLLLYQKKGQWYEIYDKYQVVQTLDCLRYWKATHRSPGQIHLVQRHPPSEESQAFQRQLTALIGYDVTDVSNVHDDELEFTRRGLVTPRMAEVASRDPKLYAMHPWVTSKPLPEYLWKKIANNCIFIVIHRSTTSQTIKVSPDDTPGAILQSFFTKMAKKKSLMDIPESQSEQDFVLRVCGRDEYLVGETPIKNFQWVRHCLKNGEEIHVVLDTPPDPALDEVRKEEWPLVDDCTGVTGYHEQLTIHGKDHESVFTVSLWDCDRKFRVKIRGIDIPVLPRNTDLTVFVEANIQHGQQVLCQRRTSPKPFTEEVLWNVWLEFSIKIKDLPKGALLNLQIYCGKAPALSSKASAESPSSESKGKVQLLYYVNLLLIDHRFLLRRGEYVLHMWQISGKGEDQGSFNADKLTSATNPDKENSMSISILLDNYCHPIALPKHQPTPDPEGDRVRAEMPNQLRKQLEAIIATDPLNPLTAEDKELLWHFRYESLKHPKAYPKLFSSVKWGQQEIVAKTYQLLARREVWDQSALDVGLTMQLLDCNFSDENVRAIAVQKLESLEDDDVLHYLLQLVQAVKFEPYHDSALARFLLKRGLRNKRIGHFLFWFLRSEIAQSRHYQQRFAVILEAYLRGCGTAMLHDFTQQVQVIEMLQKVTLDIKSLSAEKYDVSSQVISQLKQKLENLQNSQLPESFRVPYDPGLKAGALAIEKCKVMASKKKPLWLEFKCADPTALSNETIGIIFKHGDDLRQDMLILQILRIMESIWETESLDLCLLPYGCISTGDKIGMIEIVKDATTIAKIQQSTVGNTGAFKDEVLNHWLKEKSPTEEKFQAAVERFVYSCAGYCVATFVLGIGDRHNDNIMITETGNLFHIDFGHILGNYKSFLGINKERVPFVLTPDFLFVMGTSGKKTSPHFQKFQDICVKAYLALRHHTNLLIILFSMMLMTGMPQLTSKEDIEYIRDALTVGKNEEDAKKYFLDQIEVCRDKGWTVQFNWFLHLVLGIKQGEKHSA
Procedure: [γ-^33P]ATP (10 mCi/mL) and Wheat Germ Agglutinin (WGA) YSi SPA Scintillation Beads was purchased from Perkin-Elmer (Waltham, Mass.). […] PI3Kγ (p110γ) Recombinant Human Protein was purchased from Life technology (Grand Island, N.Y.). ATP, MgCl2, DTT, EDTA, MOPS and CHAPS were purchased from Sigma-Aldrich (St. Louis, Mo.).
as §1, with “PI3Kγ” for “PI3Kδ”, “ATP, 3.4 nM PI3Kδ. Reactions were incubated for 120 min and terminated by the addition of 40 μL SPA beads suspended in quench buffer: 163 mM potassium phosphate pH 7.8, 20% glycerol, 25 mM EDTA.” left out

Sequence of PI3Kδ (p110δ/p85α) Recombinant Human Protein (O00329 whole entry): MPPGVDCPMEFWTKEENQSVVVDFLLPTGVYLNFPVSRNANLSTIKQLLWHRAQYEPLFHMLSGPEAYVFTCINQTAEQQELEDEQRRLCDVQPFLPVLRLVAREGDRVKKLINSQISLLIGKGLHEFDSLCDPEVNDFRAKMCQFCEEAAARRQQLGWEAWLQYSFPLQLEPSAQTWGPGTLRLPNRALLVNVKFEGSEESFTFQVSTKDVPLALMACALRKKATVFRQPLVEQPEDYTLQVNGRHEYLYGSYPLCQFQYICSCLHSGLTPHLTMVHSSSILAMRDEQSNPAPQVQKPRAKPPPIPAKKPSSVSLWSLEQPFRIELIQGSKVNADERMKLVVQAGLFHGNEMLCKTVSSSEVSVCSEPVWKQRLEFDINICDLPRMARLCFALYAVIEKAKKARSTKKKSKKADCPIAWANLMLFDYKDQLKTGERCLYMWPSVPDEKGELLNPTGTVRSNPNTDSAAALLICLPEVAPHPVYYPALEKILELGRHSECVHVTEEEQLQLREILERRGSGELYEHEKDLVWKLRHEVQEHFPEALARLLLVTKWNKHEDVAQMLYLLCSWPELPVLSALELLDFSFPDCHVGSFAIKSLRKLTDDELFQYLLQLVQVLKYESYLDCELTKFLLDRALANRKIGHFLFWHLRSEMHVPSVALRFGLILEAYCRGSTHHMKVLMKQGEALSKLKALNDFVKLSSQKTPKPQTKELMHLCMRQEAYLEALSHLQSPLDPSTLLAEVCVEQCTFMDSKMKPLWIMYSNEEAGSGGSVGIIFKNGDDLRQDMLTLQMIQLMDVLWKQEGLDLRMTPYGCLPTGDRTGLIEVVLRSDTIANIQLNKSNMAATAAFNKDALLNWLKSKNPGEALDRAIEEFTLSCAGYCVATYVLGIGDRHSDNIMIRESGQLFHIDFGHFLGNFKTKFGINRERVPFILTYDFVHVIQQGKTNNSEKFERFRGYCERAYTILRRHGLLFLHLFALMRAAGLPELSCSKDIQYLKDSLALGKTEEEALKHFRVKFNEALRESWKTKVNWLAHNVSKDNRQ
Sequence of PI3Kδ (p110δ/p85α) Recombinant Human Protein (P27986 whole entry partner): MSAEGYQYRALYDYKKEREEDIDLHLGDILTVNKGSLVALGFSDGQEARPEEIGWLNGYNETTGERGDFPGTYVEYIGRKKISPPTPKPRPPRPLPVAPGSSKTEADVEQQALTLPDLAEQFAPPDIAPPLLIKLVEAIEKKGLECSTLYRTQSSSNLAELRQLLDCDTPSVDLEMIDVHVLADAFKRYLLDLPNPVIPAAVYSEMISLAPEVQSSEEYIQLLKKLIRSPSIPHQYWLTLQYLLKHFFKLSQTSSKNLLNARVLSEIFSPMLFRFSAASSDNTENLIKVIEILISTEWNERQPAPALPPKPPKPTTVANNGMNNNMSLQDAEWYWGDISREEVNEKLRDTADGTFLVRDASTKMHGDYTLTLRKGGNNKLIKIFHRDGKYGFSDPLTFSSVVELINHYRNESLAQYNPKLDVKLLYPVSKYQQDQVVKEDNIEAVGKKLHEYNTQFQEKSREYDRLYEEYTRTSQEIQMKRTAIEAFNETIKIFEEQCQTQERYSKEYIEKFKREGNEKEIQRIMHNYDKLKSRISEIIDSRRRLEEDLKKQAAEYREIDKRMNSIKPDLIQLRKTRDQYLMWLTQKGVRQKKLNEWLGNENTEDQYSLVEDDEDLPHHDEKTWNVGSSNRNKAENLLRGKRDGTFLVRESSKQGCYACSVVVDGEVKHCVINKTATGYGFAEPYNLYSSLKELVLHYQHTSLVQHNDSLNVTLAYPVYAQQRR

Row | Structure (SMILES) | IC50 [1] [nM] | IC50 [2] [nM]
1 | COc1cncc(-c2ccc3nc(-c4ncc[nH]4)oc3c2)c1 [Example 1, 2-(1H-Imidazol-2-yl)-6-(5-methoxypyridin-3-yl)benzo[d]oxazole trifluoroacetate] | < 5000 | < 1000
2 | COc1cncc(-c2ccc3nc(-c4cnc[nH]4)oc3c2)c1 [Example 2, 2-(1H-Imidazol-5-yl)-6-(5-methoxypyridin-3-yl)benzo[d]oxazole trifluoroacetate] | < 5000 | < 5000
3 | COc1cncc(-c2ccc3nc(-c4ccc[nH]4)oc3c2)c1 [Example 3, 6-(5-Methoxypyridin-3-yl)-2-(1H-pyrrol-2-yl)benzo[d]oxazole trifluoroacetate] | < 5000 | < 5000
4 | COc1cncc(-c2ccc3nc(-c4nc5ccccc5[nH]4)oc3c2)c1 [Example 4, 2-(1H-Benzo[d]imidazol-2-yl)-6-(5-methoxypyridin-3-yl)benzo[d]oxazole trifluoroacetate] | < 5000 | < 250
5 | COc1cncc(-c2ccc3nc(-c4cc5ccccc5[nH]4)oc3c2)c1 [Example 5, 2-(1H-Indol-2-yl)-6-(5-methoxypyridin-3-yl)benzo[d]oxazole trifluoroacetate] | < 1000 | < 250
6 | COc1cncc(-c2ccc3nc(-c4nc5ccccc5[nH]4)sc3c2)c1 [Example 6, 2-(1H-Benzo[d]imidazol-2-yl)-6-(5-methoxypyridin-3-yl)benzo[d]thiazole trifluoroacetate] | ≥ 5000 | > 5000
7 | COc1cncc(-c2ccc3nc(-c4nc5ccccc5[nH]4)ccc3c2)c1 [Example 7, 2-(1H-Benzo[d]imidazol-2-yl)-6-(5-methoxypyridin-3-yl)quinoline] | ≥ 5000 | < 1000
8 | COc1cncc(-c2ccc3nc(-c4nc5ccc(Br)cc5[nH]4)oc3c2)c1 [Example 8, 2-(6-Bromo-1H-benzo[d]imidazol-2-yl)-6-(5-methoxypyridin-3-yl)benzo[d]oxazole] | – | < 1000
9 | COc1cncc(-c2ccc3nc(-c4nc5cc(F)ccc5[nH]4)oc3c2)c1 [Example 10, 2-(5-Fluoro-1H-benzo[d]imidazol-2-yl)-6-(5-methoxypyridin-3-yl)benzo[d]oxazole] | ≥ 5000 | < 1000
10 | COc1cncc(-c2ccc3nc(-c4nc5cc(C)ccc5[nH]4)oc3c2)c1 [Example 11, 6-(5-Methoxypyridin-3-yl)-2-(5-methyl-1H-benzo[d]imidazol-2-yl)benzo[d]oxazole] | < 5000 | < 250
11 | COc1cncc(-c2ccc3nc(-c4nc5c(C)cccc5[nH]4)oc3c2)c1 [Example 12, 6-(5-Methoxypyridin-3-yl)-2-(4-methyl-1H-benzo[d]imidazol-2-yl)benzo[d]oxazole] | ≥ 5000 | < 250
12 | Brc1ccc2nc(-c3nc4ccccc4[nH]3)oc2c1 [Example 13, 2-(1H-Benzo[d]imidazol-2-yl)-6-bromobenzo[d]oxazole] | ≥ 5000 | < 5000
13 | Oc1cncc(-c2ccc3nc(-c4nc5ccccc5[nH]4)oc3c2)c1 [Example 14, 5-(2-(1H-Benzo[d]imidazol-2-yl)benzo[d]oxazol-6-yl)pyridin-3-ol] | < 5000 | < 250
14 | CC(C)Oc1cncc(-c2ccc3nc(-c4nc5ccccc5[nH]4)oc3c2)c1 [Example 15, 2-(1H-Benzo[d]imidazol-2-yl)-6-(5-isopropoxypyridin-3-yl)benzo[d]oxazole] | < 5000 | < 1000
15 | FC(F)Oc1cncc(-c2ccc3nc(-c4nc5ccccc5[nH]4)oc3c2)c1 [Example 16, 2-(1H-Benzo[d]imidazol-2-yl)-6-(5-(difluoromethoxy)pyridin-3-yl)benzo[d]oxazole] | < 1000 | < 250
16 | O=S(=O)(Nc1cncc(-c2ccc3nc(-c4nc5ccccc5[nH]4)oc3c2)c1)c1ccc(F)cc1 [Example 17, N-(5-(2-(1H-Benzo[d]imidazol-2-yl)benzo[d]oxazol-6-yl)pyridin-3-yl)-4-fluorobenzenesulfonamide] | < 250 | < 250
17 | O=S(=O)(Nc1cncc(-c2ccc3nc(-c4nc5ccccc5[nH]4)oc3c2)c1)c1cccc(F)c1 [Example 19, N-(5-(2-(1H-Benzo[d]imidazol-2-yl)benzo[d]oxazol-6-yl)pyridin-3-yl)-3-fluorobenzenesulfonamide] | < 250 | < 250
18 | O=S(=O)(Nc1cncc(-c2ccc3nc(-c4nc5ccccc5[nH]4)oc3c2)c1)N1CCCCC1 [Example 20, N-(5-(2-(1H-Benzo[d]imidazol-2-yl)benzo[d]oxazol-6-yl)pyridin-3-yl)piperidine-1-sulfonamide] | < 1000 | < 250
19 | CN(C)S(=O)(=O)Nc1cncc(-c2ccc3nc(-c4nc5ccccc5[nH]4)oc3c2)c1 [Example 21, N′-{5-[2-(1H-Benzimidazol-2-yl)-1,3-benzoxazol-6-yl]-pyridin-3-yl}-N,N-dimethylsulfamide] | < 1000 | < 250
20 | Cc1ncc(-c2ccc3nc(-c4nc5ccccc5[nH]4)oc3c2)cc1NS(=O)(=O)N(C)C [Example 22, N′-{5-[2-(1H-Benzimidazol-2-yl)-1,3-benzoxazol-6-yl]-2-methylpyridin-3-yl}-N,N-dimethylsulfamide] | < 250 | < 250
21 | CN(C)S(=O)(=O)Nc1cc(-c2ccc3nc(-c4nc5ccccc5[nH]4)oc3c2)cnc1F [Example 23, N′-{5-[2-(1H-Benzimidazol-2-yl)-1,3-benzoxazol-6-yl]-2-fluoropyridin-3-yl}-N,N-dimethylsulfamide] | < 250 | < 250
22 | CC(C)S(=O)(=O)Nc1cncc(-c2ccc3nc(-c4nc5ccccc5[nH]4)oc3c2)c1 [Example 24, N-(5-(2-(1H-Benzo[d]imidazol-2-yl)benzo[d]oxazol-6-yl)pyridin-3-yl)propane-2-sulfonamide] | < 5000 | < 250
23 | CCS(=O)(=O)Nc1cc(-c2ccc3nc(-c4nc5ccccc5[nH]4)oc3c2)cnc1C [Example 25, N-(5-(2-(1H-Benzo[d]imidazol-2-yl)benzo[d]oxazol-6-yl)-2-methylpyridin-3-yl)ethanesulfonamide] | < 250 | < 250
24 | CCS(=O)(=O)Nc1cc(-c2ccc3nc(-c4nc5ccccc5[nH]4)oc3c2)cnc1Cl [Example 26, N-(5-(2-(1H-Benzo[d]imidazol-2-yl)benzo[d]oxazol-6-yl)-2-chloropyridin-3-yl)ethanesulfonamide] | ≥ 5000 | < 250
25 | CCS(=O)(=O)Nc1cc(-c2ccc3nc(-c4nc5ccccc5[nH]4)oc3c2)cnc1F [Example 27, N-(5-(2-(1H-Benzo[d]imidazol-2-yl)benzo[d]oxazol-6-yl)-2-fluoropyridin-3-yl)ethanesulfonamide] | < 1000 | < 250
26 | Cc1ncc(-c2ccc3nc(-c4nc5ccccc5[nH]4)oc3c2)cc1NS(=O)(=O)c1ccc(F)cc1 [Example 28, N-(5-(2-(1H-Benzo[d]imidazol-2-yl)benzo[d]oxazol-6-yl)-2-methylpyridin-3-yl)-4-fluorobenzenesulfonamide] | < 250 | < 250
27 | O=S(=O)(Nc1cc(-c2ccc3nc(-c4nc5ccccc5[nH]4)oc3c2)cnc1Cl)c1ccc(F)cc1 [Example 29, N-(5-(2-(1H-Benzo[d]imidazol-2-yl)benzo[d]oxazol-6-yl)-2-chloropyridin-3-yl)-4-fluorobenzenesulfonamide] | < 250 | < 250
28 | O=S(=O)(Nc1cc(-c2ccc3nc(-c4nc5ccccc5[nH]4)oc3c2)cnc1F)c1ccc(F)cc1 [Example 30, N-(5-(2-(1H-Benzo[d]imidazol-2-yl)benzo[d]oxazol-6-yl)-2-fluoropyridin-3-yl)-4-fluorobenzenesulfonamide] | < 250 | < 250
